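96-well plates; 48 h exposure; 5 concentrations. Endpoints by linear interpolation between flanking doses. Not reached: highest tested concentration assigned. At the GI50, growth is halved. TGI: concentration producing complete growth inhibition.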

Test systems include HT29 colon; UACC-257 melanoma; 786-0 renal; U251 CNS; SF-539 CNS; COLO 205 colon; HL-60(TB) leukemia; SR leukemia; T-47D breast.
Common to all, as to assay: DTP human tumour cell line panel, 48 h

Turning to `Cc1nn(-c2ccccc2)c2nc(N3CCOCC3)nnc12`, the TGI in the experiment on HT29 colon, in the experiment on UACC-257 melanoma, with 786-0 renal, in the experiment on U251 CNS, with SF-539 CNS and in the experiment with COLO 205 colon was above 100 µM each time.

Turning to `N#Cc1nc(Nc2cccc3ccccc23)sc1N`, the TGI in the experiment on HT29 colon was above 100 µM; with UACC-257 melanoma it was 41.1 µM; with 786-0 renal, above 100 µM; in the experiment with HL-60(TB) leukemia, above 100 µM; with U251 CNS, 52.9 µM; in the experiment with SF-539 CNS, 76.6 µM. Besides, the TGI with COLO 205 colon worked out at 81.5 µM; in the experiment with SR leukemia, 27.8 µM.

For the compound `CCOc1ccccc1C=C1c2ccccc2C(=O)c2ccccc21`, the TGI was 47 µM with UACC-257 melanoma; 18 µM in the experiment with 786-0 renal; 8.46 µM in the experiment on HL-60(TB) leukemia; above 100 µM in the experiment with U251 CNS; 5.22 µM in the experiment with SF-539 CNS; 17.4 µM in the experiment with COLO 205 colon.

As for `COC(=O)c1cc2c(s1)C(=O)c1ccccc1-2`, the TGI in the experiment on UACC-257 melanoma, in the experiment with 786-0 renal, in the experiment on HL-60(TB) leukemia, with U251 CNS, in the experiment on SF-539 CNS and in the experiment on COLO 205 colon was above 100 µM in each case.

Regarding `Cc1cc([N+](=O)[O-])ccc1Nc1cccc(Cl)c1C`, the TGI with HT29 colon was found to be 32 µM; in the experiment with UACC-257 melanoma, 40.4 µM; in the experiment on 786-0 renal, 31.9 µM; in the experiment with HL-60(TB) leukemia, 41.6 µM; in the experiment with U251 CNS, 29.8 µM; in the experiment on COLO 205 colon, 31.3 µM. For the same compound, the TGI in the experiment on SR leukemia was 40.4 µM.

As to `CC1(C)COC(c2cccnc2/C=N/O)=N1`, the TGI with HT29 colon, with UACC-257 melanoma, with 786-0 renal, in the experiment with HL-60(TB) leukemia, with U251 CNS and in the experiment with SF-539 CNS was above 100 µM each time. The TGI in the experiment with COLO 205 colon and with SR leukemia was above 100 µM each time.

With `NNC(=S)N/N=C(\CC1OC(=O)c2ccccc21)c1ccccc1O` (centres undefined), the TGI in the experiment with HT29 colon is above 100 µM; in the experiment on UACC-257 melanoma, above 100 µM; in the experiment on 786-0 renal it was above 100 µM; in the experiment on HL-60(TB) leukemia, above 100 µM; in the experiment on U251 CNS, 56.2 µM; with SF-539 CNS, 43.7 µM. The TGI in the experiment with COLO 205 colon was above 100 µM; in the experiment on SR leukemia, 46.4 µM.

As for `COC1(OC)CC2C(=O)N(Cc3ccccc3)C1C(S(=O)(=O)c1ccccc1)C2S(=O)(=O)c1ccccc1` (centres undefined), the TGI in the experiment with HT29 colon worked out at 28.4 µM; in the experiment on UACC-257 melanoma it was 21.1 µM; with 786-0 renal it was 30.7 µM; in the experiment on HL-60(TB) leukemia, 17.3 µM; with U251 CNS, 27.2 µM; with SF-539 CNS, 27.3 µM. Further, the TGI with COLO 205 colon came out at 16.9 µM; in the experiment on SR leukemia it was 85.4 µM.

As to `CCC[CH2][Sn]1([CH2]CCC)[O]N=C(c2ccccc2)C(c2ccccc2)[O]1` (centres undefined), the GI50 is 2.46 µM in the experiment with HT29 colon; 2.02 µM with UACC-257 melanoma; 1.45 µM in the experiment with 786-0 renal; 0.263 µM in the experiment with HL-60(TB) leukemia; 1.54 µM in the experiment with U251 CNS; 1.79 µM in the experiment on SF-539 CNS. Moreover, the GI50 was 1.53 µM with COLO 205 colon and 0.574 µM with SR leukemia. In addition, the TGI with HT29 colon was found to be 5.4 µM; in the experiment on UACC-257 melanoma, 4.51 µM; with 786-0 renal, 2.83 µM; with HL-60(TB) leukemia it was 1.42 µM; in the experiment on U251 CNS it was 2.9 µM; with SF-539 CNS, 3.39 µM. Also, the TGI in the experiment with COLO 205 colon came to 2.92 µM; in the experiment with SR leukemia it was 3.59 µM.

For `CN(C)c1ccc(C(C=C2c3ccccc3Sc3ccccc32)=C(C#N)C#N)cc1`, the TGI in the experiment on HT29 colon, in the experiment on UACC-257 melanoma, with 786-0 renal, in the experiment with HL-60(TB) leukemia, in the experiment with U251 CNS and in the experiment on SF-539 CNS was above 100 µM in each case. In the experiment with COLO 205 colon, this compound registered a total growth inhibition concentration (TGI) above 100 µM.

On to `COc1cnc2c(c1)C(=O)c1c-2n(CCCNC(C)C)c(=O)c2cc(Cl)ccc12`, for which the GI50 was 0.398 µM in the experiment with HT29 colon; 12.1 µM with UACC-257 melanoma; 0.438 µM with 786-0 renal; 0.3 µM with HL-60(TB) leukemia; 0.0654 µM in the experiment with U251 CNS; 0.554 µM in the experiment on SF-539 CNS. The GI50 was 0.278 µM in the experiment on T-47D breast, 0.111 µM in the experiment on COLO 205 colon and 0.0577 µM in the experiment with SR leukemia. The TGI was 2.09 µM in the experiment on HT29 colon; 32.8 µM in the experiment with UACC-257 melanoma; 1.98 µM in the experiment with 786-0 renal; 1.69 µM with HL-60(TB) leukemia; 1.53 µM with U251 CNS; 1.87 µM in the experiment on SF-539 CNS. For the same compound, the figures for the TGI with T-47D breast, with COLO 205 colon and with SR leukemia were 2.55 µM, 2 µM and 0.464 µM, respectively.

`CN(C)/C=N/c1nc2c(ncn2C2OC(CO)C(O)C2O)c(=O)[nH]1` (centres undefined): the TGI in the experiment with HT29 colon, in the experiment on UACC-257 melanoma, in the experiment on 786-0 renal, with HL-60(TB) leukemia, with U251 CNS and in the experiment with SF-539 CNS was above 100 µM throughout. The TGI with COLO 205 colon and in the experiment on SR leukemia was above 100 µM in each case.

Regarding `O=C(CCn1[nH]c(=O)c(Cl)c(Cl)c1=O)NO`, the concentration for total growth inhibition (TGI) in the experiment on HT29 colon, with UACC-257 melanoma, in the experiment with 786-0 renal, with HL-60(TB) leukemia, in the experiment on U251 CNS and with SF-539 CNS was above 100 µM each time. This compound returned a TGI with COLO 205 colon above 100 µM.

As to `COC(=O)C1=C(O)c2cc(OC)c(OC)cc2C(c2ccc(OC)c(OC)c2)C1` (centres undefined), the TGI in the experiment on HT29 colon, in the experiment on UACC-257 melanoma, with 786-0 renal, in the experiment with HL-60(TB) leukemia, in the experiment on U251 CNS and with SF-539 CNS was above 100 µM each time. In addition, the TGI in the experiment with COLO 205 colon and in the experiment on SR leukemia was above 100 µM in each case.

Consider `COc1ccc(C(=O)C(c2ccc(OC)cc2)C2(O)C(=O)Nc3ccc([N+](=O)[O-])cc32)cc1` (centres undefined), for which the TGI in the experiment on HT29 colon is above 100 µM; in the experiment on UACC-257 melanoma, above 100 µM; in the experiment on 786-0 renal it was above 100 µM; with HL-60(TB) leukemia, above 100 µM; in the experiment on U251 CNS, above 100 µM; with SF-539 CNS, 24 µM. The TGI in the experiment on COLO 205 colon and in the experiment on SR leukemia was above 100 µM each time.

For the origin of these results see PubChem BioAssay (NCI).
